The test system of data set [1] is SD rats. In words: Repeated-dose toxicity test in rats. In kind it is in vivo. The following applies: 14 days; for hair loss (animals affected) / lassitude (animals affected) / loose stools (animals affected): gavage once daily, 20 rats. The method, then: The test substances were suspended in 0.5% methylcellulose solution to prepare suspensions with a concentration of 0.5 mg/mL, 1.5 mg/mL and 3 mg/mL.
Animals: SD rats, 6-8 weeks old, SPF grade, purchased from Beijing Vital River Laboratory Animal Technology Co., Ltd., licensed […] No: SCXK (Beijing) 2006-0009.
The test substances were administrated as a suspension via gavage, and administrating volume was 10 mL/kg. 0.5% methyl cellulose solution was used in the solvent group, and the administrating volume was 10 mL/kg, administered once daily for consecutive 14 days. Animals were observed daily appearance and general behavior changes.

The target in data set [2] is T1, mTOR (Homo sapiens (Human), UniProt P42345). Description: mTOR inhibitory activity, Method 1 activity test. The class given is biochemical. The conditions noted are these: 4EBP1 50 nM, ATP 10.8 μM. Here is the method:
Determination of the Inhibitory Activity of mTOR
(§1) 1. Preparation of test reagents
(1) 1× kinase buffer (50 mM HEPES, pH 7.5, 10 mM MgCl2, 1 mM EGTA, 3 mM MnCl, 0.01% Tween-20, 2 mM DTT);
(2) 4× kinase solution (added mTOR kinase to 1× kinase buffer to provide 4× kinase solution with a final concentration of 2.5 nM);
(3) 2× substrate solution (added the substrates of 4EBP1 and ATP into 1× kinase buffer to provide 2× substrate solution with 4EBP1 final concentration of 50 nM and ATP final concentration of 10.8 μM);
(4) 4× test substance solutions (100× test substance solutions with different concentration gradients were prepared using 100% DMSO, and diluted 25-fold with 1× kinase buffer to give 4× test substance solutions with different concentration gradients)
(5) preparation of test solution (test solution containing EDTA and 4EBP1 phosphorylated antibody was prepared using activity test kit with assay buffer, the final concentration of EDTA was 8 mM, and the final concentration of 4EBP1 phosphorylated antibody was 2 nM)
(§2) 2. 2.5 μL of 4× test solution was added to a 384-well plate in parallel;
(§3) 3. added […] of 4× kinase solution and incubated for 10 min;
4. then added 5 μL of 2× solutions of 4EBP1 and ATP substrates and incubated for 1 h at room temperature;
5. finally, added 10 μL of test solution to quench the reaction, and read after 60 min;
(§4) 6. IC50 value was obtained via curve fitting. Inhibition rate (%)=(sample value−minimum)/(maximum−minimum)×100
Minimum refers to the readings of control wells without enzyme, maximum refers to the readings of DMSO control wells.
(§5) IC50 value was obtained via curve fitting using a soft of Graphpad 5.0.

The nature of data set [3]: In vivo pharmacokinetics in rats, gavage (PO). The following applies: male, SD, rat, plasma, 4 mg/kg.
The subject of data set [4] is SKOV-3. In words: Cell viability assay by XTT method, SKOV-3. The class given is cell-based. The following applies: Homo sapiens, SK-OV-3. The method, then:
(§6) 1. Preparation of Reagents and Compounds
(§7) 2) Preparation of XTT test working solution:
(§8) 100 mg of tetrazolium salt (XTT) powder was weighed and dissolved in dark in 300 mL of phenol red-free serum-free RPMI1640 medium heated to 50° C., filtered and subpackaged, used immediately or within a week. All process should be conducted in dark.
(§9) 3) Preparation of test compounds
(§10) preparation of stock solutions of the test substances: the powder of test substances was dissolved in DMSO in a concentration of 10 mM.
(§11) preparation of gradiently diluted stock solutions of test substances: First, 10 mM of the stock solutions of test substances were diluted serially in 4-fold with DMSO to 10 concentrations. 2 μL of DMSO-diluted solution for each compound was taken and added to 998 μL of culture medium containing 10% fetal bovine serum (FBS). The highest concentration of the test substances was 20 μM, the concentration of DMSO was 0.2%, and there were 10 concentration gradients in total.
(§12) 1) Preparation of cell suspension
(§13) The culture medium was discarded from the flask, and the cells were washed twice with PBS. Added trypsinase to digest the cell and then collected by centrifugation, resuspended with a medium containing 10% FBS, counted and adjusted to an appropriate concentration (cell viability must be greater than 90%). The cell concentration was […].
(§14) 2) The cell suspension was added to 96-well plates, each well 100 μL.
(§15) 3) Incubated in a cell incubator overnight at 37° C., 5% CO2.
(§16) Added compound diluted 2-fold to the cell culture plates, three repeated in total, 100 μL well.
(§17) 5. Cell Viability Assay by XTT Method
(§18) Discarded the culture medium, added XTT test working liquid in an amount of 150 μL well, and kept in a cell incubator at 37° C., 5% CO2 for 2 h, then placed into a microplate reader and read the absorbance at 450 nm.
(§19) 1) The percentage of inhibition was calculated using the following formula: Inhibition rate (%)=(reading(solvent)−reading(compound))/reading(solvent)−reading(positive control))×100
(§20) 2) The data was entered into GraphPad Prism 5.0 and plotted to obtain the curve and IC50.

Data set [5] concerns U87MG. In words: Cell viability assay by XTT method, U87MG. The class given is cell-based. The conditions noted are these: Homo sapiens, U-87 MG. Here is the method:
as §6, §7, §8, §9, §10, §11, §12, §13, §14, §15, §16, §17, §18, §19, §20

The target of data set [6] is T2, PI3Kα (Homo sapiens (Human), UniProt P42336). Description: PI3K inhibitory activity, Method 1 activity test. The class given is biochemical. The following applies: PIP2 50 μM, ATP 25 μM. The method, then:
Determination of the inhibitory activity of PI3K
as §1
(1) 1× kinase buffer (50 mM HEPES, pH 7.5, 3 mM MgCl2, 1 mM EGTA, 100 mM NaCl, 0.03% CHAPS, 2 mM DTT);
(2) 4× kinase solution (added PI3K a kinase to 1× kinase buffer to provide 4× kinase solution with a final concentration of 1.65 nM);
(3) 2× substrate solution (added the substrates of PIP2 and ATP into 1× kinase buffer to provide 2× substrate solution with PIP2 final concentration of 50 μM and ATP final concentration of 25 μM);
(4) 4× test substance solutions (100× test substance solutions with different concentration gradients were prepared using 100% DMSO, and diluted 25-fold with 1× kinase buffer to give 4× test substance solutions with different concentration gradients);
(5) Invitrogen's activity test kit with the test solution was kept stand to room temperature.
as §2, §3
4. then added 5 μL of 2× solutions of PIP2 and ATP substrates and incubated for 1 h at room temperature;
5. finally, added 10 μL of test solution to quench the reaction, and read after 15 min;
as §4
Maximum refers to the readings of control wells without enzyme, minimum refers to the readings of DMSO control wells.
as §5

Data set [7] is described as follows: In vivo pharmacokinetics in rats, intravenous bolus injection (IV). The following applies: 2 mg/kg; for AUC / half-life: male, SD, rat, plasma, iv; for Cl_obs / Vss_obs: rats, IV.
A short description of data set [8]: in vivo. The following applies: male, SD, rat, po, 4 mg/kg.
The target of data set [9] is T1, mTOR. Description: biochemical. In kind it is binding.
The conditions of data set [10]: male, SD, rat, in vivo, iv, 2 mg/kg.
A short description of data set [11]: in vivo. The conditions noted are these: male, SD, rat, iv, 2 mg/kg.
Data set [12] addresses T2, PI3Kα. Description: biochemical. The class given is binding.

The results in this text go back to patent publication US9284315B2, “Three-ring PI3K and/or mTOR inhibitor” (XUANZHU PHARMA CO., LTD., priority 2011, dated 2016).

Values joined by “and” are separate entries in the source; they are usually repeats but may differ in a detail not shown here. Identical values can stand only once. Like-named read-outs stand apart in the source and are kept apart here.

T2 sequence (P42336 whole entry): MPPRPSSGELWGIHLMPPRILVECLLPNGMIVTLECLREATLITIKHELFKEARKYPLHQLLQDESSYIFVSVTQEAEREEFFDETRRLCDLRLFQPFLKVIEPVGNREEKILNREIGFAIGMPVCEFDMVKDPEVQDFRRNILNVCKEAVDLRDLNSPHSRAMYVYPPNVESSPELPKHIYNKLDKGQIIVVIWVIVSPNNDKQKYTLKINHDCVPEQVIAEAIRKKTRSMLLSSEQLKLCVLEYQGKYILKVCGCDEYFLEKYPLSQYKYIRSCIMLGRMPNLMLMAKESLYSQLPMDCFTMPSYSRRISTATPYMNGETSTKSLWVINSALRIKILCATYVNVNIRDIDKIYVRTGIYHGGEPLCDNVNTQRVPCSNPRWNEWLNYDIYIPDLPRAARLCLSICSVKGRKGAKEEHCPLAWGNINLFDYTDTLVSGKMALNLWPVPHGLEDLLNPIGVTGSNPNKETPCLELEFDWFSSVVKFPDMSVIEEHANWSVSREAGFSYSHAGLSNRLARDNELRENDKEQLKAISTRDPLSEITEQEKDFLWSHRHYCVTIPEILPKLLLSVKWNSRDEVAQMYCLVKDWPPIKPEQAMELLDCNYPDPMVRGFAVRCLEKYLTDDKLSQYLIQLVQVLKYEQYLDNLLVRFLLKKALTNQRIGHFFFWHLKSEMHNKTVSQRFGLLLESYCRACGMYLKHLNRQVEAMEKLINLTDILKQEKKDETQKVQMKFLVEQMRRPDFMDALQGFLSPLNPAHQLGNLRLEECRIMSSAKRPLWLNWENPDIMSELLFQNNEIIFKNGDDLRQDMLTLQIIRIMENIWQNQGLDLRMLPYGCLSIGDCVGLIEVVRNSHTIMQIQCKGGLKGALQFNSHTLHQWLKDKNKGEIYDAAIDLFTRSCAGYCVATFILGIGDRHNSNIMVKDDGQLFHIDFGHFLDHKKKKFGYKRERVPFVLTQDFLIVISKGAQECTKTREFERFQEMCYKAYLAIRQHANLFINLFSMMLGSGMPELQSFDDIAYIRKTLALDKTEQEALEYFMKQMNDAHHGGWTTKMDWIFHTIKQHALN
T2 sequence (P27986 whole entry partner): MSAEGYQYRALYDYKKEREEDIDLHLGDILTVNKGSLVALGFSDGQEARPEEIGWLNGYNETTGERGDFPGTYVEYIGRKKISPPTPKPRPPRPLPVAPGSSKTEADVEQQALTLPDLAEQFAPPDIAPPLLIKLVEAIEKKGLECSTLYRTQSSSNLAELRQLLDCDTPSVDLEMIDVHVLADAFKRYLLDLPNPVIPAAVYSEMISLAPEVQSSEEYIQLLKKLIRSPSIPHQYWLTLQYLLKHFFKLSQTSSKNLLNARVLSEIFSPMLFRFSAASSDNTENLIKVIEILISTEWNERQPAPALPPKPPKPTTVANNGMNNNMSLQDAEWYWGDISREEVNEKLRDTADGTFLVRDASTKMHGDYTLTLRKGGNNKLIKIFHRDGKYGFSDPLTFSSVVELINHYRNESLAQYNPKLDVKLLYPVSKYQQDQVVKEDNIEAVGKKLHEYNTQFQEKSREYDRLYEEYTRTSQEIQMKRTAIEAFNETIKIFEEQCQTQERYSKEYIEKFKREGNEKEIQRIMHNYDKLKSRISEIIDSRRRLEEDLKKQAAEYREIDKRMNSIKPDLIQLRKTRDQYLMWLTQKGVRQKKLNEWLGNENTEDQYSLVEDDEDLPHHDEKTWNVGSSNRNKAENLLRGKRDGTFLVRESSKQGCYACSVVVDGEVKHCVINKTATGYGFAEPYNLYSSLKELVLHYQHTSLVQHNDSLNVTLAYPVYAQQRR

Regarding `CN1Cc2cnc3ccc(-c4ccc(N)nc4)nc3c2N(c2cccc(C(F)(F)F)c2)C1=O` [Compound 3], in data set [1] (high dose 30 mg/kg/day), the “hair loss (animals affected)” value is “one and 1/20”; the “lassitude (animals affected)” value was “four and 4/20”; the “loose stools (animals affected)” value is “one and 1/20”. Also, in [1] (low dose 5 mg/kg/day), the abnormal vital signs entry is “no animals with abnormal vital signs”, the “hair loss (animals affected)” value was 0/20, the “lassitude (animals affected)” value is on record as 0/20 and the “loose stools (animals affected)” value is on record as 0/20. In [1] (middle dose 15 mg/kg/day), the “hair loss (animals affected)” value is reported as 0/20; the “lassitude (animals affected)” value is on record as 0/20; the “loose stools (animals affected)” value was “one and 1/20”. In addition, the half-maximal inhibitory concentration (IC50) in data set [2] was 0.00886 µM. Further, in data set [3], the AUC came out at 1.38 µg·h/mL, the Cmax came to 0.198 µg/mL, the bioavailability was determined as 40.4% and the half-life was 320 min. In addition, half-maximal inhibition in data set [4] (IC50) required 0.155 µM. Also, the IC50 in [5] was 0.0847 µM. In addition, the IC50 in data set [6] amounted to 0.0104 µM. In [7], the AUC came to 1.7 µg·h/mL, the half-life is 389 min, the Cl_obs is given as 1.14 L/h/kg and the Vss_obs was found to be 5.6 L/kg.
Compound `CN1Cc2cnc3ccc(-c4cnc(N)nc4)nc3c2N(c2cccc(C(F)(F)F)c2)C1=O` [Compound 14, 9-(2-aminopyrimidin-5-yl)-3-methyl-1-(3-(trifluoromethyl)phenyl)-3,4-dihydropyrimido[5,4-c][1,5]naphthyridin-1(2H)-one] yielded an IC50 in data set [2] of 0.0085 µM. Further, in data set [3], the AUC came to 0.402 µg·h/mL, the highest level (Cmax) was 0.147 µg/mL, the Tmax is 30 min and the bioavailability is 26.3%. The same compound had a half-life in [3] of 83.4 min. In data set [4], this compound came in with an IC50 of 0.89 µM. Besides, inhibition in [5] was half-maximal at 0.437 µM (IC50). In data set [6], this compound gave an IC50 of 0.0033 µM. In [7], the AUC is 0.735 µg·h/mL, the half-life was 125 min, the Cl_obs was 2.84 L/h/kg and the Vss_obs worked out at 2.97 L/kg.
For the compound `COc1ccc(-c2ccc3ncc4c(c3n2)N(c2ccc(C(C)(C)C#N)cc2)C(=O)N(C)C4)cn1` [Compound 30, 2-(4-(9-(6-methoxypyridin-3-yl)-3-methyl-2-oxo-3,4-dihydropyrimido[5,4-c][1,5]naphthyridin-1(2H)-yl)phenyl)-2-methylpropionitrile], the IC50 in [4] is 0.349 µM; in data set [5] it was 0.499 µM.
Compound `CC(=O)Nc1ccc(-c2ccc3ncc4c(c3n2)N(c2cccc(C(F)(F)F)c2)C(=O)N(C)C4)cn1` [Compound 7, N-(5-(3-methyl-2-oxo-1-(3-(trifluoromethyl)phenyl)-1,2,3,4-tetrahydropyrimido[5,4-c][1,5]naphthyridin-9-yl)pyridin-2-yl)acetamide] returned an IC50 in [2] of 0.0387 µM. In data set [3], the AUC came to 0.0634 µg·h/mL, the Cmax amounted to 0.0349 µg/mL, the time to peak (Tmax) was 30 min and the bioavailability came out at 11.6%. The same compound showed a half-life in data set [3] of 102 min. For the same compound, inhibition in [4] was half-maximal at 0.895 µM (IC50). This compound gave an IC50 in data set [5] of 0.901 µM. Besides, in data set [6], the IC50 was determined as 0.0293 µM. In data set [7], this compound gave an AUC of 0.275 µg·h/mL, a half-life of 28.2 min, a Cl_obs of 7.42 L/h/kg and a Vss_obs of 4.45 L/kg.
Consider `COc1ccc(-c2ccc3ncc4c(c3n2)N(C2CCN(C(=O)[C@@H](C)O)CC2)C(=O)N(C)C4)cn1` [Compound 86, (R)-1-(1-(2-hydroxypropanoyl)piperidin-4-yl)-9-(6-methoxypyridin-3-yl)-3-methyl-3,4-dihydropyrimido[5,4-c][1,5]naphthyridin-2(1H)-one], for which, in data set [8], the AUC stood at 0.177 µg·h/mL, the highest level (Cmax) was 0.251 µg/mL, the Tmax was 19.8 min and the bioavailability worked out at 58%. Besides, the half-life in data set [8] is 62.4 min. This compound had an IC50 in [9] of 0.257 µM. In data set [10], this compound showed a Cl_obs of 13.6 L/h/kg and a Vss_obs of 3.58 L/kg. In data set [11], this compound had an AUC of 0.154 µg·h/mL and a half-life of 12 min. In [12], this compound yielded an IC50 of 0.0097 µM.
For the compound `CN1Cc2cnc3ccc(-c4cnc5ccccc5c4)nc3c2N(c2ccc(N3CCNCC3)c(C(F)(F)F)c2)C1=O` [Compound 80], the values for the IC50 in data set [4] and in data set [5] were 0.542 µM and 0.279 µM, respectively.
Regarding `CN1Cc2cnc3ccc(-c4cnc5[nH]ccc5c4)nc3c2N(c2cccc(C(F)(F)F)c2)C1=O` [Compound 22, 3-methyl-9-(1H-pyrrolo[2,3-b]pyridin-5-yl)-1-(3-(trifluoromethyl)phenyl)-3,4-dihydropyrimido[5,4-c][1,5]naphthyridin-1(2H)-one], in data set [2], the IC50 was determined as 0.0175 µM. In data set [4], this compound came in with an IC50 of 0.551 µM. In data set [5], this compound registered an IC50 of 0.275 µM. Also, in [6], the IC50 was found to be 0.0102 µM. In data set [7], this compound gave an AUC of 0.357 µg·h/mL, a half-life of 43.2 min, a Cl_obs of 5.57 L/h/kg and a Vss_obs of 5.28 L/kg.
For `CN1Cc2cnc3ccc(-c4cnc5ccccc5c4)nc3c2N(c2ccc(C(C)(C)C#N)cc2)C1=O` [Compound 52], the IC50 came to 0.0665 µM in data set [2], 0.467 µM in [4], 0.436 µM in [5] and 0.154 µM in [6].
For `COc1ccc(-c2ccc3ncc4c(c3n2)N(C2CCNCC2)C(=O)N(C)C4)cn1` [Compound 114], the figures for the IC50 in data set [9] and in data set [12] were 0.732 µM and 0.115 µM, respectively.
